Among the data in patent publication US9834542B2, “LXR modulators” (BRISTOL-MYERS SQUIBB COMPANY, priority 2013, dated 2017) are EC50 and Emax values, retold here.

A word on the EC50: it is the concentration at which the effect is half-maximal. Read a high EC50 as a need for much substance.

This assay deals with T1, LXRβ (Homo sapiens, UniProt P55055).
T1 construct: Co-transfection expression plasmids, comprising full-length LXRα (pCMX-h LXRα[…] or LXRβ (pCMX-hLXRβ)); expressed in transfected cells; host or cells: CV-1 African Green Monkey Kidney Cells
T1 sequence (P55055 1-460): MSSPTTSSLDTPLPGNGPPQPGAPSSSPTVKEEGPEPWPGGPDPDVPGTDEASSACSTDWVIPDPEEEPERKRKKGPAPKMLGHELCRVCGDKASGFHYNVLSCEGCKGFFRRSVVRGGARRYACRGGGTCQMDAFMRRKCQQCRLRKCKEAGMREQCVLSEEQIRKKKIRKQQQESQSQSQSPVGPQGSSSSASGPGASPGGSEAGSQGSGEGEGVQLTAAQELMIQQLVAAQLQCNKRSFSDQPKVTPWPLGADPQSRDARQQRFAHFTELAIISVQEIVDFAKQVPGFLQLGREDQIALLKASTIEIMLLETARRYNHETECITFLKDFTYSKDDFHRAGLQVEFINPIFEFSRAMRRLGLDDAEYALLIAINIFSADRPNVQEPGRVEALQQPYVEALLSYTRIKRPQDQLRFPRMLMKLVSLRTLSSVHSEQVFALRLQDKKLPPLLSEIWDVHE
T1 sequence (P19793 1-462 partner): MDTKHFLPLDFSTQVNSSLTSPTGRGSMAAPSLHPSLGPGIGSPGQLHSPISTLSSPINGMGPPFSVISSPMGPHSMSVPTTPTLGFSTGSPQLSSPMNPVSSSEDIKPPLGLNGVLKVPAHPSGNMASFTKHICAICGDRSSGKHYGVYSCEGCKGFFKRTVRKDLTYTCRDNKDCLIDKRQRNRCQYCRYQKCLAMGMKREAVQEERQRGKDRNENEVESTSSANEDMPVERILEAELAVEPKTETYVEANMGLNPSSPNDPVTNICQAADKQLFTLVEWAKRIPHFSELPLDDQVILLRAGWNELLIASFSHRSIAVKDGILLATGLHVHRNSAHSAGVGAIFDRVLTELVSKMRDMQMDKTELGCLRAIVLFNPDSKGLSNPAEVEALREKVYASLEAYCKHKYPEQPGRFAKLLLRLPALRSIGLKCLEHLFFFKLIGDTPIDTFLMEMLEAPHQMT
Briefly: Co-transfection assay (LXRE luciferase reporter), LXRβ. The format is cell-based. The note with it: for EC50: CV-1 cells transfected with pCMX-hLXRβ and LXREx1-Tk-Luciferase, 20 hours incubation; for Emax: LXRβ co-transfection, relative to high control 1-(2,4-difluorobenzyl)-2-oxo-6-(4-phenoxyphenyl)-4-(trifluoromethyl)-1,2-dihydropyridine-3-carbonitrile, read-out: % Efficacy. In outline: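 CV-1 cells transiently co-transfected with full-length human LXRβ (or LXRα), LXREx1-Tk-luciferase reporter and β-galactosidase control; compound added (10 μM final in single-point, 11-point ½-log curves, ≤0.5% DMSO) for 20 h at 37 °C. Luciferase read; EC50 from four-parameter fit, efficacy relative to reference agonist high control.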
Background: In a reporter assay the amount or activity of a reporter protein is the signal.

SMILES strings stand for the structures.

As for `Cc1nc(-c2cc(-c3cc(F)c(CO)c(S(C)(=O)=O)c3)ccc2-n2cc(C(F)(F)F)nc2C)c(-c2ccc(OC(F)F)cc2)o1` [Example 496, (3′-(5-(4-(difluoromethoxy)phenyl)-2-methyloxazol-4-yl)-3-fluoro-4′-(2-methyl-4-(trifluoromethyl)-1H-imidazol-1-yl)-5-(methylsulfonyl)biphenyl-4-yl)methanol], the EC50 is 0.048 µM and the Emax came out at 116%.

On to `Cc1nc(-c2cc(-c3ccc(CO)c(S(C)(=O)=O)c3)ccc2-n2cc(C(F)(F)F)nc2C)c(-c2ccc(OC(F)F)cc2)o1` [Example 497, (3′-(5-(4-(difluoromethoxy)phenyl)-2-methyloxazol-4-yl)-4′-(2-methyl-4-(trifluoromethyl)-1H-imidazol-1-yl)-3-(methylsulfonyl)biphenyl-4-yl)methanol], for which a half-maximal effect (EC50) was put at 0.088 µM and the Emax is 124%.

Consider `Cc1nc(-c2cc(-c3cccc(S(C)(=O)=O)c3)ccc2-n2cc(C(F)(F)F)nc2C)c(-c2ccc(Cl)c(F)c2)o1` [Example 498, 5-(4-chloro-3-fluorophenyl)-2-methyl-4-(4-(2-methyl-4-(trifluoromethyl)-1H-imidazol-1-yl)-3′-(methylsulfonyl)biphenyl-3-yl)oxazole], for which the midpoint of the response, the EC50, lay at 0.087 µM and the Emax was found to be 76%.

As to `Cc1nc(-c2cc(-c3cc(F)c(CO)c(S(C)(=O)=O)c3)ccc2-n2cc(C(F)(F)F)nc2C)c(-c2ccc(Cl)c(F)c2)o1` [Example 499, (3′-(5-(4-chloro-3-fluorophenyl)-2-methyloxazol-4-yl)-3-fluoro-4′-(2-methyl-4-(trifluoromethyl)-1H-imidazol-1-yl)-5-(methylsulfonyl)biphenyl-4-yl)methanol], the response was half-maximal at 0.05 µM (EC50) and the Emax stood at 74%.

For `Cc1nc(-c2cc(-c3cccc(S(C)(=O)=O)c3)ccc2-n2cc(C(F)(F)F)nc2C)c(-c2ccc(N(C)C)cc2)o1` [Example 500, N,N-dimethyl-4-(2-methyl-4-(4-(2-methyl-4-(trifluoromethyl)-1H-imidazol-1-yl)-3′-(methylsulfonyl)biphenyl-3-yl)oxazol-5-yl)aniline], the EC50 amounted to 0.085 µM and the Emax is 96%.

Regarding `Cc1nc(-c2cc(-c3cc(F)c(CO)c(S(C)(=O)=O)c3)ccc2-n2cc(C(F)(F)F)nc2C)c(-c2ccc(N3CCCC3=O)cc2)o1` [Example 501], the EC50 turned out to be 1.62 µM and the Emax worked out at 38%.

Take `Cc1nc(-c2cc(-c3cccc(S(C)(=O)=O)c3)ccc2-n2cc(C(F)(F)F)nc2C)c(-c2ccc(N3CCCC3=O)cc2)o1` [Example 502, 1-(4-(2-methyl-4-(4-(2-methyl-4-(trifluoromethyl)-1H-imidazol-1-yl)-3′-(methylsulfonyl)biphenyl-3-yl)oxazol-5-yl)phenyl)pyrrolidin-2-one]: the EC50 was 1.25 µM and the Emax stood at 37%.

Regarding `Cc1nc(-c2cc(-c3cc(F)c(CO)c(S(C)(=O)=O)c3)ccc2-n2cc(C(F)(F)F)nc2C)c(-c2ccc(C)c(F)c2)o1` [Example 503, (3-fluoro-3′-(5-(3-fluoro-4-methylphenyl)-2-methyloxazol-4-yl)-4′-(2-methyl-4-(trifluoromethyl)-1H-imidazol-1-yl)-5-(methylsulfonyl)biphenyl-4-yl)methanol], a half-maximal response (EC50) required 0.045 µM and the Emax was 71%.

Consider `Cc1nc(-c2cc(-c3cccc(S(C)(=O)=O)c3)ccc2-n2cc(C(F)(F)F)nc2C)c(-c2ccc(C)c(F)c2)o1` [Example 504, 5-(3-fluoro-4-methylphenyl)-2-methyl-4-(4-(2-methyl-4-(trifluoromethyl)-1H-imidazol-1-yl)-3′-(methylsulfonyl)biphenyl-3-yl)oxazole], for which the EC50 turned out to be 0.091 µM and the Emax stood at 77%.

Consider `Cc1nc(-c2cc(-c3cccc(S(C)(=O)=O)c3)ccc2-n2cc(C(F)(F)F)nc2C)c(-c2ccc(F)cc2)o1` [Example 505, 5-(4-fluorophenyl)-2-methyl-4-(4-(2-methyl-4-(trifluoromethyl)-1H-imidazol-1-yl)-3′-(methylsulfonyl)biphenyl-3-yl)oxazole], for which the EC50 was determined as 0.144 µM and the Emax turned out to be 87%.

As for `Cc1nc(-c2cc(-c3cccc(S(C)(=O)=O)c3)ccc2-n2cc(C(F)(F)F)nc2C)c(-c2ccc(F)c(C#N)c2)o1` [Example 506, 2-fluoro-5-(2-methyl-4-(4-(2-methyl-4-(trifluoromethyl)-1H-imidazol-1-yl)-3′-(methylsulfonyl)biphenyl-3-yl)oxazol-5-yl)benzonitrile], the EC50 turned out to be 0.349 µM and the Emax amounted to 77%.

As to `Cc1nc(-c2cc(-c3cc(F)c(CO)c(S(C)(=O)=O)c3)ccc2-n2cc(C(F)(F)F)nc2C)c(-c2ccc(Cl)c(Cl)c2)o1` [Example 507, (3′-(5-(3,4-dichlorophenyl)-2-methyloxazol-4-yl)-3-fluoro-4′-(2-methyl-4-(trifluoromethyl)-1H-imidazol-1-yl)-5-(methylsulfonyl)biphenyl-4-yl)methanol], the EC50 was 0.035 µM and the Emax was determined as 62%.

For the molecule `Cc1nc(-c2cc(-c3cccc(S(C)(=O)=O)c3)ccc2-n2cc(C(F)(F)F)nc2C)c(-c2ccc(Cl)c(Cl)c2)o1` [Example 508, 5-(3,4-dichlorophenyl)-2-methyl-4-(4-(2-methyl-4-(trifluoromethyl)-1H-imidazol-1-yl)-3′-(methylsulfonyl)biphenyl-3-yl)oxazole], the EC50 came out at 0.082 µM and the Emax amounted to 68%.

For the molecule `Cc1nc(-c2cc(-c3cc(F)c(CO)c(S(C)(=O)=O)c3)ccc2-n2cc(C(F)(F)F)nc2C)c(-c2ccc(F)c(Cl)c2)o1` [Example 509, (3′-(5-(3-chloro-4-fluorophenyl)-2-methyloxazol-4-yl)-3-fluoro-4′-(2-methyl-4-(trifluoromethyl)-1H-imidazol-1-yl)-5-(methylsulfonyl)biphenyl-4-yl)methanol], a half-maximal effect (EC50) was put at 0.058 µM and the Emax worked out at 70%.

With `Cc1nc(-c2cc(-c3cccc(S(C)(=O)=O)c3)ccc2-n2cc(C(F)(F)F)nc2C)c(-c2ccc(F)c(Cl)c2)o1` [Example 510, 5-(3-chloro-4-fluorophenyl)-2-methyl-4-(4-(2-methyl-4-(trifluoromethyl)-1H-imidazol-1-yl)-3′-(methylsulfonyl)biphenyl-3-yl)oxazole], the response was half-maximal at 0.061 µM (EC50) and the Emax was 76%.

For the molecule `Cc1nc(-c2cc(-c3cccc(S(C)(=O)=O)c3)ccc2-n2cc(C(F)(F)F)nc2C)c(-c2ccc(F)c(F)c2)o1` [Example 511, 5-(3,4-difluorophenyl)-2-methyl-4-(4-(2-methyl-4-(trifluoromethyl)-1H-imidazol-1-yl)-3′-(methylsulfonyl)biphenyl-3-yl)oxazole], the EC50 amounted to 0.115 µM and the Emax worked out at 79%.

Regarding `Cc1nc(-c2cc(-c3ccc(CO)c(S(C)(=O)=O)c3)ccc2-n2cc(C(F)(F)F)nc2C)c(-c2ccc(F)c(F)c2)o1` [Example 512, (3′-(5-(3,4-difluorophenyl)-2-methyloxazol-4-yl)-4′-(2-methyl-4-(trifluoromethyl)-1H-imidazol-1-yl)-3-(methylsulfonyl)biphenyl-4-yl)methanol], the midpoint of the response, the EC50, lay at 0.136 µM and the Emax was 71%.

Regarding `Cc1nc(-c2cc(-c3cccc(S(C)(=O)=O)c3)ccc2-n2cc(C(F)(F)F)nc2C)c(-c2ccc(C(F)(F)F)cc2)o1` [Example 513, 2-methyl-4-(4-(2-methyl-4-(trifluoromethyl)-1H-imidazol-1-yl)-3′-(methylsulfonyl)biphenyl-3-yl)-5-(4-(trifluoromethyl)phenyl)oxazole], the EC50 stood at 0.137 µM and the Emax is 64%.

On to `CCC(F)(F)c1cn(-c2ccc(-c3cccc(S(C)(=O)=O)c3)cc2-c2nc(C)oc2-c2ccc(OC(F)(F)F)cc2)c(C)n1` [Example 517, 4-(4-(4-(1,1-difluoropropyl)-2-methyl-1H-imidazol-1-yl)-3′-(methylsulfonyl)-[1,1′-biphenyl]-3-yl)-2-methyl-5-(4-(trifluoromethoxy)phenyl)oxazole], for which the EC50 is 0.146 µM and the Emax stood at 47%.
